One experiment relates to MV4;11 cells. Description: Cell Titer-Glo cell growth inhibition in MV4;11 cell line (Day 5 / Day 10). Type of experiment: cell-based. How it is done: Cell growth inhibition against MV4;11 cells was confirmed for the synthetic compounds. The Cell Titer-Glo Luminescent Cell Viability Assay (Promega, USA) was used to determine the number of viable cells in culture based on quantitation of the ATP present, which signals the presence of metabolically active cells. This assay was run in a 96-well plate format arrayed in a 10-point dose curve, ranging from 0 to 50 µM with 4-fold dilutions for each compound. Cells are seeded on Day 0 at 3750 cells per well. At Day 5, a portion of each well is assayed for viability according to the Cell Titer-Glo protocol. Briefly, cells/plates were centrifuged at 1100×g for 5 minutes. 100 μL of media was removed from each well and replaced with 100 μL of CellTiter-Glo. The plates were shaken at room temperature for 10 minutes and measured on a luminescence plate reader. Another portion of each well from the Day 5 plate is used to seed a new 96 plate containing fresh compound and media set up in the equivalent 10-point dose curve array in order to continue the cell growth inhibition assay for another 5 days. A final timepoint is collected at Day 10 using the Cell Titer-Glo protocol. Luminescence was detected on an En Vision® Multilabel Plate Reader (Perkin Elmer, Waltham, Mass.) and IC50 determination was made using Graph Pad Prism software.
Background: In ATP-based viability assays light output follows the ATP content of the culture.

In a further experiment the target is LSD1 (Homo sapiens, UniProt O60341). Description: LSD1 fluorescence coupling enzyme assay (HRP/Amplex Red, H3(1-21)K4me2 peptide), 10-dose IC50. Conditions: 10 μM histone H3(1-21)K4me2 peptide substrate, 3-fold serial dilution from 100 μM. Type of experiment: biochemical. The essentials: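 Fluorescence coupled assay: LSD1 demethylation of 10 μM H3(1-21)K4me2 peptide produces FAD-dependent H2O2, detected via HRP/Amplex Red as resorufin (Ex/Em 535/590 nm). IC50 from 10 doses, 3-fold serial dilution from 100 μM, in duplicate.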

Setting [1] is: Homo sapiens, MV4-11, 120 h, Day 5, read-out: Cell Titer-Glo IC50 (5 d).
Where [2] appears, read: Homo sapiens, MV4-11, 240 h, Day 10, read-out: Cell Titer-Glo IC50 (10 d).
Setting [3] is: Homo sapiens, 120 h, Day 5, read-out: Cell Titer-Glo IC50 (5 d).
The mark [4] stands for this setting: Homo sapiens, 240 h, Day 10, read-out: Cell Titer-Glo IC50 (10 d).

pIC50: −log10 of the molar value. Read-outs that look alike come from different tables or passages of the source.

As for `COc1ccc(-n2nc(NCC3CC3N)cc2-c2ccc(C#N)c(F)c2)cc1` (single isomer, unassigned) [Example 29a, 4-(3-(((2-aminocyclopropyl)methyl)amino)-1-(4-methoxyphenyl)-1H-pyrazol-5-yl)-2-fluorobenzonitrile], the results for the pIC50 in the experiment with MV4;11 cells (setting [1]), in the experiment on MV4;11 cells (setting [2]) and on LSD1 were 5.00 to 6.00, above 6.30 and 6.00 to 6.30, respectively.
Take `COc1ccc(-n2nc(NCC3CC3N)cc2-c2ccc(C#N)c(F)c2)cc1` (single isomer, unassigned) [Example 29b, 4-(3-(((2-aminocyclopropyl)methyl)amino)-1-(4-methoxyphenyl)-1H-pyrazol-5-yl)-2-fluorobenzonitrile]: the negative logarithm of the IC50 (pIC50) was 5.00 to 6.00 in the experiment with MV4;11 cells (Day 5, read-out: Cell Titer-Glo IC50 (5 d)); above 6.30 with MV4;11 cells (Day 10, read-out: Cell Titer-Glo IC50 (10 d)); above 6.30 on LSD1.
Turning to `Cn1ncc2cc(-n3nc(NC[C@@H]4CN5CCC4CC5)cc3-c3ccc(C#N)c(F)c3)ccc21` (single isomer, unassigned) [Example 31a], the values for the pIC50 with MV4;11 cells (setting [3]), in the experiment on MV4;11 cells (setting [4]) and at LSD1 were 5.00 to 6.00, above 6.30 and above 6.30, respectively.
Consider `Cn1ncc2cc(-n3nc(NC[C@H]4CN5CCC4CC5)cc3-c3ccc(C#N)c(F)c3)ccc21` (single isomer, unassigned) [Example 31b], for which the pIC50 in the experiment with MV4;11 cells (setting [3]) was 6.00 to 6.30; in the experiment on MV4;11 cells (setting [4]), above 6.30; against LSD1 it was above 6.30.
Take `CN[C@H]1CCCC(CNc2cc(-c3ccc(C#N)c(F)c3)n(-c3ccc(OC)cc3)n2)C1` (single isomer, unassigned) [Example 32a]: the pIC50 in the experiment with MV4;11 cells (setting [1]) is 5.00 to 6.00; against LSD1, above 6.30.
`CN[C@@H]1CCCC(CNc2cc(-c3ccc(C#N)c(F)c3)n(-c3ccc(OC)cc3)n2)C1` (single isomer, unassigned) [Example 32b]: the pIC50 with MV4;11 cells (setting [1]) and against LSD1 was 5.00 to 6.00 in each case.
On to `CN[C@H]1CCC[C@H](CNc2cc(-c3ccc(C#N)c(F)c3)n(-c3ccc(OC)cc3)n2)C1` (single isomer, unassigned) [Example 33a], for which the pIC50 in the experiment with MV4;11 cells (setting [1]) is 5.00 to 6.00; at LSD1, 6.00 to 6.30.
As for `CN[C@@H]1CCC[C@@H](CNc2cc(-c3ccc(C#N)c(F)c3)n(-c3ccc(OC)cc3)n2)C1` (single isomer, unassigned) [Example 33b], the pIC50 in the experiment on MV4;11 cells (setting [1]) was 5.00 to 6.00; against LSD1, above 6.30.
The like results for `COc1ccc(-n2nc(N)cc2-c2ccc(C#N)c(F)c2)cc1` [Example 1, 4-(3-Amino-1-(4-methoxyphenyl)-1H-pyrazol-5-yl)-2-fluorobenzonitrile] were, in that order, below 5.00 and below 5.00.
The like results for `COc1ccc(-n2nc(NCC3CCNCC3)cc2-c2ccc(C#N)c(F)c2)cc1` [Example 2, 2-Fluoro-4-(1-(4-methoxyphenyl)-3-((piperidin-4-ylmethyl)amino)-1H-pyrazol-5-yl)benzonitrile] were, in that order, above 6.30 and above 6.30.
Regarding `COc1ccc(-n2nc(NCC3CCCNC3)cc2-c2ccc(C#N)c(F)c2)cc1` (centres unmarked) [Example 3, 2-fluoro-4-(1-(4-methoxyphenyl)-3-((piperidin-3-ylmethyl)amino)-1H-pyrazol-5-yl)benzonitrile], the pIC50 in the experiment with MV4;11 cells (setting [1]) and on LSD1 was above 6.30 each time.
On to `COc1ccc(-n2nc(NCC3CCNC3)cc2-c2ccc(C#N)c(F)c2)cc1` (centres unmarked) [Example 8, 2-fluoro-4-(1-(4-methoxyphenyl)-3-((pyrrolidin-3-ylmethyl)amino)-1H-pyrazol-5-yl)benzonitrile], for which the pIC50 with MV4;11 cells (setting [1]) and at LSD1 was above 6.30 in each case.
As to `Cn1cc2cc(-n3nc(NCC4CCCNC4)cc3-c3ccc(C#N)c(F)c3)ccc2n1` (centres unmarked) [Example 9, 2-Fluoro-4-(1-(2-methyl-2H-indazol-5-yl)-3-((piperidin-3-ylmethyl)amino)-1H-pyrazol-5-yl)benzonitrile], the pIC50 with MV4;11 cells (setting [1]) and on LSD1 was above 6.30 in each case.
`Cn1cc2cc(-n3nc(NCC4CCNCC4)cc3-c3ccc(C#N)c(F)c3)ccc2n1` [Example 10, 2-Fluoro-4-(1-(2-methyl-2H-indazol-5-yl)-3-((piperidin-4-ylmethyl)amino)-1H-pyrazol-5-yl)benzonitrile]: the pIC50 with MV4;11 cells (setting [1]) and against LSD1 was above 6.30 each time.
For `COc1ccc(-n2nc(NC[C@@H]3CCC[C@@H](N)C3)cc2-c2ccc(C#N)c(F)c2)cc1` [Example 11RR, 4-(3-((((1R,3R)-3-aminocyclohexyl)methyl)amino)-1-(4-methoxyphenyl)-1H-pyrazol-5-yl)-2-fluorobenzonitrile], the pIC50 in the experiment with MV4;11 cells (setting [1]) is 5.00 to 6.00; against LSD1, 6.00 to 6.30.
With `Cc1ccc(-n2nc(NC[C@@H]3CCC[C@@H](N)C3)cc2-c2ccc(C#N)c(F)c2)cc1` [Example 12RR, 4-(3-((((1R,3R)-3-aminocyclohexyl)methyl)amino)-1-(p-tolyl)-1H-pyrazol-5-yl)-2-fluorobenzonitrile], the pIC50 with MV4;11 cells (setting [1]) was 5.00 to 6.00; in the experiment on MV4;11 cells (setting [2]) it was above 6.30; against LSD1 it was 6.00 to 6.30.
In the case of `Cc1ccc(-n2nc(NC[C@H]3CCC[C@H](N)C3)cc2-c2ccc(C#N)c(F)c2)cc1` [Example 12SS, 4-(3-((((1S,3S)-3-aminocyclohexyl)methyl)amino)-1-(p-tolyl)-1H-pyrazol-5-yl)-2-fluorobenzonitrile], the pIC50 with MV4;11 cells (setting [1]), with MV4;11 cells (setting [2]) and at LSD1 was above 6.30 in each case.
Take `Cn1cc2cc(-n3nc(NC[C@@H]4CCC[C@@H](N)C4)cc3-c3ccc(C#N)c(F)c3)ccc2n1` [Example 13RR, 4-(3-((((1R,3R)-3-aminocyclohexyl)methyl)amino)-1-(2-methyl-2H-indazol-5-yl)-1H-pyrazol-5-yl)-2-fluorobenzonitrile]: the pIC50 was 5.00 to 6.00 in the experiment with MV4;11 cells (setting [1]), above 6.30 with MV4;11 cells (setting [2]) and above 6.30 against LSD1.
Regarding `Cn1cc2cc(-n3nc(NC[C@H]4CCC[C@H](N)C4)cc3-c3ccc(C#N)c(F)c3)ccc2n1` [Example 13SS, 4-(3-((((1S,3S)-3-aminocyclohexyl)methyl)amino)-1-(2-methyl-2H-indazol-5-yl)-1H-pyrazol-5-yl)-2-fluorobenzonitrile], the pIC50 with MV4;11 cells (setting [2]) and at LSD1 was above 6.30 in each case.
Turning to `Cn1nc2ccc(-n3nc(NC[C@@H]4CCC[C@@H](N)C4)cc3-c3ccc(C#N)c(F)c3)cc2c1Cl` [Example 14RR, 4-(3-((((1R,3R)-3-aminocyclohexyl)methyl)amino)-1-(3-chloro-2-methyl-2H-indazol-5-yl)-1H-pyrazol-5-yl)-2-fluorobenzonitrile], the pIC50 with MV4;11 cells (setting [1]), in the experiment on MV4;11 cells (setting [2]) and at LSD1 was above 6.30 throughout.
In the case of `Cn1nc2ccc(-n3nc(NC[C@H]4CCC[C@H](N)C4)cc3-c3ccc(C#N)c(F)c3)cc2c1Cl` [Example 14SS, 4-(3-((((1S,3S)-3-aminocyclohexyl)methyl)amino)-1-(3-chloro-2-methyl-2H-indazol-5-yl)-1H-pyrazol-5-yl)-2-fluorobenzonitrile], the pIC50 in the experiment with MV4;11 cells (setting [2]) and against LSD1 was above 6.30 in each case.
In the case of `N#Cc1ccc(-c2cc(NC[C@H]3CCC[C@H](N)C3)nn2-c2ccc3c(cnn3-c3ccccc3)c2)cc1F` [Example 15, 4-(3-((((1S,3S)-3-aminocyclohexyl)methyl)amino)-1-(1-phenyl-1H-indazol-5-yl)-1H-pyrazol-5-yl)-2-fluorobenzonitrile], the pIC50 in the experiment on MV4;11 cells (setting [1]), in the experiment with MV4;11 cells (setting [2]) and on LSD1 was above 6.30 throughout.

Usually pIC50 stands for −log10 of the IC50, conventionally taken in molar units.
